Measurements: patent US20090062273A1, “3-H-pyrazolopyridines and salts thereof, pharmaceutical compositions comprising same, methods of preparing same and uses of same” (priority 2006, published 2009)
pIC50: −log10 of the molar value.

Key:
Tie2 [1] = molecular target: T1, Tie2 (Homo sapiens, UniProt Q02763); set-up: expressed in transfected cells; host or cells: CHO (CHO Tie2/DHFR); conditions: Albert et al. Mol. Cancer. Ther. 2006, 5, 995; cited from earlier work
Target sequence in this assay (Q02763 23-1124, species assumed): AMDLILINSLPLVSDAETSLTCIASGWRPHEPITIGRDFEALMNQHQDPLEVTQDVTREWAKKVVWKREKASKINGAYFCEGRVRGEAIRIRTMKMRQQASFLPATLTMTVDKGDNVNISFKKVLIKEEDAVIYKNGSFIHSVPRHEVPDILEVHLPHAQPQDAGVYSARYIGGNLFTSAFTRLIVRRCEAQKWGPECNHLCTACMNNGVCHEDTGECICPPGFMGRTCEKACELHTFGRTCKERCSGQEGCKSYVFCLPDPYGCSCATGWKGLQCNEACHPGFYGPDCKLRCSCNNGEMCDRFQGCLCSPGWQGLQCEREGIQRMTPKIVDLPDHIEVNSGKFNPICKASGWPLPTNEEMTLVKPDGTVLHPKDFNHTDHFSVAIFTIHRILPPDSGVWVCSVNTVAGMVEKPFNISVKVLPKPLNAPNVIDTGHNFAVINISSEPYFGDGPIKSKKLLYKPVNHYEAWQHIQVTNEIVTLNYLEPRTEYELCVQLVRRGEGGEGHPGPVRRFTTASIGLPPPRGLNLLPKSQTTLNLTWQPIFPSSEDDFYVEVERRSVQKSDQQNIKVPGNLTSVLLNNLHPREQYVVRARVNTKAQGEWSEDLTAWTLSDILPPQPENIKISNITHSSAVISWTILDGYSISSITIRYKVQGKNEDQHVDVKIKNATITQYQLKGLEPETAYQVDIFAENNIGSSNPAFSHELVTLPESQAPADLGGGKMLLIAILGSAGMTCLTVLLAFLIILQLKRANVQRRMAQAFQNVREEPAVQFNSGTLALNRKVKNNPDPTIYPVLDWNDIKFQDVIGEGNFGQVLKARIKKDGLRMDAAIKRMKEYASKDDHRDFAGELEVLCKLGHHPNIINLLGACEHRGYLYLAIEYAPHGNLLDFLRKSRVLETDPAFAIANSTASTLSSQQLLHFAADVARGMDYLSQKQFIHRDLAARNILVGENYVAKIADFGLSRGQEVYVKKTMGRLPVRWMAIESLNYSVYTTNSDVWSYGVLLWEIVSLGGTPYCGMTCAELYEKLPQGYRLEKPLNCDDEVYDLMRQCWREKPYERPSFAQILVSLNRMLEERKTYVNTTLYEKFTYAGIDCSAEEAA

Tie2 [2] = molecular target: T1, Tie2; set-up: expressed in transfected cells; host or cells: CHO (CHO Tie2/DHFR); conditions: more potent against other kinases than against Tie2; cited from earlier work
Target sequence in this assay (Q02763 23-1124, species assumed): as above

Tie2 [3] = molecular target: T1, Tie2; assay: Tie2 ELISA assay (cellular Tie2 autophosphorylation); format: cell-based; set-up: expressed in transfected cells; host or cells: CHO (CHO Tie2/DHFR); conditions: CHO cells stably transfected with Tie2, stimulated by angiopoietin-2; Tie2 autophosphorylation by sandwich-ELISA; read-out: Tie 2 activity (assay 1)
Protocol: Cellular activity of compounds of the present invention as inhibitors of Tie2 kinase activity was measured employing a Tie2 ELISA assay as described in the following paragraphs. Herein CHO cell-cultures, which are stably transfected by known techniques with Tie2 using DHFR deficiency as selection marker, are stimulated by angiopoietin-2. The specific autophosphorylation of Tie2 receptors is quantified with a sandwich-ELISA using anti-Tie2 antibodies for catch and anti-phosphotyrosine antibodies coupled to HRP for detection.
• 96 well tissue culture plate, sterile, Greiner • 96 well FluoroNunc plate MaxiSorp Surface C, Nunc • 96 well plate polypropylene for compound dilution in DMSO • CHO Tie2/DHFR (transfected cells) • PBS−; PBS++, DMSO • MEM alpha Medium with Glutamax-I without Ribonucleosides and Deoxyribonucleosides (Gibco #32561-029) • with 10% FCS after dialysis! and 1% PenStrep • Lysis buffer: 1 Tablet “Complete” protease inhibitor • 1 cap Vanadate (1 mL>40 mg/mL; working solution 2 mM) • ad 50 mL with Duschl-Puffer • pH 7.6 • Anti-Tie2-antibody 1:425 in Coating Buffer pH 9.6 • Stock solution: 1.275 mg/mL>working.: 3 μg/mL • PBST: 2 bottles PBS (10×)+10 ml Tween, fill up with VE-water • RotiBlock 1:10 in VE-water • Anti-Phosphotyrosine HRP-Conjugated 1:10000 in 3% TopBlock • 3% TopBlock in PBST • BM Chemiluminescence ELISA Substrate (POD) • solution B 1:100 solution A • SF9 cell culture medium • Ang2-Fc in SF9 cell culture medium
• Dispense 5×10^4 cells/well/98 μL in 96 well tissue culture plate • Incubate at 37° C./5% CO2 • After 24 h add compounds according to desired concentrations • Add also to control and stimulated values without compounds 2 μL DMSO • And mix for a few min at room temperature • Add 100 μL Ang2-Fc to all wells except control, which receives insect medium • Incubate 20 min at 37° C. • Wash 3× with PBS++ • Add 100 μl Lysis buffer/well and shake a couple of min at room temperature • Store lysates at […] before utilizing for the ELISA
• Coat 96 well FluoroNunc Plate MaxiSorp Surface C with anti-Tie2 mAb 1:425 in Coating buffer pH 9.6; 100 μL/well overnight at 4° C. • Wash 2× with PBST • Block plates with 250 μL/well RotiBlock 1:10 in VE-water • Incubate for 2 h at room temperature or overnight at 4° C. shaking • Wash 2× in PBST • Add thawed lysates to wells and incubate overnight shaking at 4° C. • Wash 2× with PBST • Add 100 μL/well anti-Phosphotyrosine HRP-Conjugated 1:10000 in 3% TopBlock (3% TopBlock in PBST) and incubate overnight under shaking • Wash 6× with PBST • Add 100 μL/well BM Chemiluminescence ELISA Substrate (POD) solutions 1 und 2 (1:100) • Determine luminescence with the LumiCount. Assay 2: Tie-2-Kinase HTRF-Assay without Kinase Preactivation
Target sequence in this assay (Q02763 23-1124, species assumed): as above

Tie2 [4] = molecular target: T1, Tie2; assay: Tie-2-Kinase HTRF-Assay without kinase preactivation; format: biochemical; set-up: fusion protein of GST and the intracellular domains of Tie-2; GST; made in house; host or cells: insect cells (Hi-5); conditions: GST-Tie-2 intracellular domains, 10 μM ATP
Description: Tie2-inhibitory activity of compounds of the present invention was quantified employing two Tie2 HTRF assay as described in the following paragraphs.
A recombinant fusion protein of GST and the intracellular domains of Tie-2, expressed in insect cells (Hi-5) and purified by Glutathion-Sepharose affinity chromatography was used as kinase. Alternatively, commercially available GST-Tie2-fusion protein (Upstate Biotechnology, Dundee, Scotland) can be used As substrate for the kinase reaction the biotinylated peptide biotin-Ahx-EPKDDAYPLYSDFG (C-terminus in amid form) was used which can be purchased e.g. from the company Biosynthan GmbH (Berlin-Buch, Germany). Detection of phosphorylated product is achieved specifically by a trimeric detection complex consisting of the phosphorylated substrate, streptavidin-XLent (SA-XLent) which binds to biotin, and Europium Cryptate-labeled anti-phosphotyrosine antibody PT66 which binds to phosphorylated tyrosine.
Tie-2 (3.5 ng/measurement point) was incubated for 60 min at 22° C. in the presence of 10 μM adenosine-tri-phosphate (ATP) and 1 μM substrate peptide (biotin-Ahx-EPKDDAYPLYSDFG-NH2) with different concentrations of test compounds (0 μM and concentrations in the range 0.001-20 μM) in 5 μl assay buffer [50 mM Hepes/NaOH pH 7, 10 mM MgCl2, 0.5 mM MnCl2, 1.0 mM dithiothreitol, 0.01% NP40, protease inhibitor mixture (“Complete w/o EDTA” from Roche, 1 tablet per 2.5 ml), 1% (v/v) dimethylsulfoxide]. The reaction was stopped by the addition of 5 μl of an aqueous buffer (25 mM Hepes/NaOH pH 7.5, 0.28% (w/v) bovine serum albumin) containing EDTA (90 mM) and the HTRF (Homogeneous Time Resolved Fluorescence) detection reagents streptavidine-XLent (0.2 μM, from Cis Biointernational, Marcoule, France) and PT66-Eu-Chelate (0.3 ng/μl; a europium-chelate labelled anti-phospho-tyrosine antibody from Perkin Elmer).
The resulting mixture was incubated 1 h at 22° C. to allow the binding of the biotinylated phosphorylated peptide to the streptavidine-XLent and the PT66-Eu-Chelate. Subsequently the amount of phosphorylated substrate peptide was evaluated by measurement of the resonance energy transfer from the PT66-Eu-Chelate to the streptavidine-XLent. Therefore, the fluorescence emissions at 620 nm and 665 nm after excitation at 350 nm was measured in a HTRF reader, e.g. a Rubystar (BMG Labtechnologies, Offenburg, Germany) or a Viewlux (Perkin-Elmer). The ratio of the emissions at 665 nm and at […] was taken as the measure for the amount of phosphorylated substrate peptide. The data were normalised (enzyme reaction without inhibitor=0% inhibition, all other assay components but no enzyme=100% inhibition) and IC50 values were calculated by a 4 parameter fit using an inhouse software.
Target sequence in this assay (Q02763 770-1124 limits assumed, species assumed): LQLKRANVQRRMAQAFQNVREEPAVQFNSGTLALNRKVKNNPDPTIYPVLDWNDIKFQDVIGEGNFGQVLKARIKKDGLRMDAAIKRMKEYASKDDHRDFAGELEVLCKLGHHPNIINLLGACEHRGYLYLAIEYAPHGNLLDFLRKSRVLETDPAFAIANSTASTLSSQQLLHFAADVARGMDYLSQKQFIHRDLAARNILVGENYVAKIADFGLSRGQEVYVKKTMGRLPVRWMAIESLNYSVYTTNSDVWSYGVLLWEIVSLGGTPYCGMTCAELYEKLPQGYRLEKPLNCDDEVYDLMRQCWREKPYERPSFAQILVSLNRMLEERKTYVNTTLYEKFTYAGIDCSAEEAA

Row | SMILES | activity as inhibitor of cellular Tie2 autophosphorylation (Tie2 [1]) | potency against at least 5 other kinase targets relative to Tie2 (Tie2 [2]) [times] | pIC50 (Tie2 [3]) | pIC50 (Tie2 [4])
1 | Cc1ccc(F)c(NC(=O)Nc2ccc(-c3cccc4[nH]nc(N)c34)cc2)c1 [Abt-869] | only modest activity | > 10 |  | 
2 | Cn1ncc2c(-c3ccc(NC(=O)Nc4ccc(CN5CCN(CC6CC6)CC5)c(C(F)(F)F)c4)cc3)cncc21 [Example 13.26, 1-[4-(4-Cyclopropylmethyl-piperazin-1-ylmethyl)-3-trifluoromethyl-phenyl]-3-[4-(1-methyl-1H-pyrazolo[3,4-c]pyridin-4-yl)-phenyl]-urea] |  |  | > 6.30 | > 6.30
